{"source": "patent US20260070945A1", "about": "“MACROCYCLIC IMMUNOMODULATORS” (Bristol-Myers Squibb Company, priority 2022, published 2026)", "note": "pIC50: −log10 of the molar value. *1 amine or outer side, *2 acyl side, *3 side chain or, on linkers, in order; H or OH if unused. Where a SMILES comes first, the peptide text is derived from it. Bridges are numbered along the chain shown (N, C = ends). [ ]: non-standard residue; d: D form. The star is where a group is joined. ξ: configuration not given here. Phe(4-COOH) = N[C@@H](Cc1ccc(C(=O)O)cc1)C(=O)O; Bip = N[C@@H](Cc1ccc(-c2ccccc2)cc1)C(=O)O; Phe(3-Me) = Cc1cccc(C[C@H](N)C(=O)O)c1; γGlu = O=C(O)[C@H](CCC(=O)[*:2])N[*:1]; aIle = CC[C@@H](C)[C@H](N)C(=O)O; hArg = N=C(N)NCCCC[C@H](N)C(=O)O; 4Pal = N[C@@H](Cc1ccncc1)C(=O)O; Cha = N[C@@H](CC1CCCCC1)C(=O)O; Ile(3ξ) = CCC(C)[C@H](N)C(=O)O; Thr(3ξ) = CC(O)[C@H](N)C(=O)O; 12Ado = NCCCCCCCCCCCC(=O)O; dOrn = NCCC[C@@H](N)C(=O)O; Carboxymethyl = O=C(O)C*; NMeA = CN[C@@H](C)C(=O)O; Orn = NCCC[C@H](N)C(=O)O; dDap = NC[C@@H](N)C(=O)O; Aun = NCCCCCCCCCCC(=O)O; Dab = NCC[C@H](N)C(=O)O; AEEA = NCCOCCOCC(=O)O", "data": [{"target": "T1, PD-1/PD-L1 interaction (PE-labeled human PD-L1-Ig binding to Jurkat cell line over-expressing human PD-1) (Homo sapiens, UniProt Q15116)", "T1 construct": "expressed in transfected cells; host or cells: Jurkat", "T1 sequence (Q15116 25-288)": "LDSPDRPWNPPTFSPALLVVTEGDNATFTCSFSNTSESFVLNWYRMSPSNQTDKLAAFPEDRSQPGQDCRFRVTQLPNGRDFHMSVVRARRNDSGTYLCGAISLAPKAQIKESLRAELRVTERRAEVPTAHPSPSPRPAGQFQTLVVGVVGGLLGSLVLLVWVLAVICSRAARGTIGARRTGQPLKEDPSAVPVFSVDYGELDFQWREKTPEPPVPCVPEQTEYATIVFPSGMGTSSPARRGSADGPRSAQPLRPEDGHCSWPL", "experiment": "Jurkat-PD-1 Cell Binding High-Content Screening Assay (CBA)", "settings": "Jurkat-hPD-1 cells, PE-labeled PD-L1-Ig 20 nM final; read-out: Jurkat HPD1 PDL1 IC50", "procedure,_shortened": "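Cells 8×10^3/well, DMEM + 10% FCS; cpd 2 h, 37 °C; PE–PD-L1-Ig 20 nM final, 1 h; PFA fix + Hoechst 33342, 3× dPBS wash; high-content imager.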", "values": [{"smiles": "CCC(C)[C@@H]1NC(=O)[C@H](Cc2ccc(-c3ccccc3)cc2)NC(=O)[C@H](C(C)C)NC(=O)[C@H](Cc2c[nH]c3ccccc23)NC(=O)[C@H](CC(=O)O)NC(=O)[C@H](Cc2ccc(OCC(=O)O)cc2)NC(=O)[C@H](Cc2ccncc2)NC(=O)CSC[C@@H](C(=O)NCCOCCOCC(=O)N[C@@H](CCCCN)C(=O)NCCCCCCCCCCC(=O)O)NC(=O)[C@H](CO)NC(=O)[C@H](C(C)C)NC(=O)[C@H](CC2CCCCC2)NC(=O)[C@H](CCN)NC(=O)[C@@H](CC(C)C)NC(=O)[C@H](C)N(C)C1=O", "note": "(stereo partly drawn) [Example 2033] ({CH2CO}-[4Pal]Y(Carboxymethyl)DWV[Bip][Ile(3ξ)][NMeA][dL][Dab][Cha]VSC[AEEA]K[Aun]-OH; thioether N-14)", "pIC50": 7.72}, {"smiles": "CC[C@@H](C)[C@@H]1NC(=O)[C@H](Cc2ccc(-c3ccccc3)cc2)NC(=O)[C@H](CC(C)C)NC(=O)[C@H](Cc2c[nH]c3ccccc23)NC(=O)[C@H](CC(=O)O)NC(=O)[C@H](Cc2ccc(C(=O)O)cc2)NC(=O)[C@H](Cc2ccc(OCC(=O)O)cc2)NC(=O)CSC[C@@H](C(=O)NCCOCCOCC(=O)N[C@H](CCCN)C(=O)NCCCCCCCCCCC(=O)O)NC(=O)[C@H](CO)NC(=O)[C@H](C(C)C)NC(=O)[C@H](CC2CCCCC2)NC(=O)[C@H](CCN)NC(=O)[C@@H](CC(C)C)NC(=O)[C@H](C)N(C)C1=O", "note": "[Example 2034] ({CH2CO}-Y(Carboxymethyl)[Phe(4-COOH)]DWL[Bip][aIle][NMeA][dL][Dab][Cha]VSC[AEEA][dOrn][Aun]-OH; thioether N-14)", "pIC50": 7.77}, {"smiles": "CC(C)C[C@@H]1NC(=O)[C@H](Cc2c[nH]c3ccccc23)NC(=O)[C@H](CC(=O)O)NC(=O)[C@H](Cc2ccc(O)cc2)NC(=O)[C@H](Cc2ccccc2)NC(=O)CSC[C@@H](C(=O)N[C@@H](C)C(=O)N[C@H](CCCCN)C(=O)NCCCCCCCCCCC(=O)O)NC(=O)[C@H](CO)NC(=O)[C@H](C(C)C)NC(=O)[C@H](CC(C)C)NC(=O)[C@H](CCN)NC(=O)[C@@H](CC(C)C)NC(=O)[C@H](C)N(C)C(=O)[C@H](C(C)C)NC(=O)[C@H](Cc2ccc(-c3ccccc3)cc2)NC1=O", "note": "[Example 2035] ({CH2CO}-FYDWL[Bip]V[NMeA][dL][Dab]LVSCA[dK][Aun]-OH; thioether N-14)", "pIC50": 7.66}, {"smiles": "CC[C@@H](C)[C@@H]1NC(=O)[C@H](Cc2ccc(-c3ccccc3)cc2)NC(=O)[C@H](C(C)C)NC(=O)[C@H](Cc2c[nH]c3ccccc23)NC(=O)[C@H](CC(=O)O)NC(=O)[C@H](Cc2ccc(O)cc2)NC(=O)[C@H](Cc2ccncc2)NC(=O)CSC[C@@H](C(=O)N[C@@H](CCN)C(=O)NCCCCCCCCCCC(=O)O)NC(=O)[C@H](C(C)O)NC(=O)[C@H](C(C)C)NC(=O)[C@H](CC2CCCCC2)NC(=O)[C@H](CCN)NC(=O)[C@@H](CC(C)C)NC(=O)[C@H](C)N(C)C1=O", "note": "(stereo partly drawn) [Example 2036] ({CH2CO}-[4Pal]YDWV[Bip][aIle][NMeA][dL][Dab][Cha]V[Thr(3ξ)]C[Dab][Aun]-OH; thioether N-14)", "pIC50": 7.36}, {"smiles": "CC(C)C[C@@H]1NC(=O)[C@H](Cc2c[nH]c3ccccc23)NC(=O)[C@H](CC(=O)O)NC(=O)[C@H](Cc2ccc(OCC(=O)O)cc2)NC(=O)[C@H](Cc2ccccc2)NC(=O)CSC[C@@H](C(=O)N[C@H](CN)C(=O)NCCOCCOCC(=O)NCCCCCCCCCCC(=O)O)NC(=O)[C@H](Cc2c[nH]cn2)NC(=O)[C@H](C(C)C)NC(=O)[C@H](CC(C)C)NC(=O)[C@H](CCN)NC(=O)[C@@H](CC(C)C)NC(=O)[C@H](C)N(C)C(=O)[C@H](C(C)C)NC(=O)[C@H](Cc2ccc(-c3ccccc3)cc2)NC1=O", "note": "[Example 2037] ({CH2CO}-FY(Carboxymethyl)DWL[Bip]V[NMeA][dL][Dab]LVHC[dDap][AEEA][Aun]-OH; thioether N-14)", "pIC50": 7.54}, {"smiles": "CCC(C)[C@@H]1NC(=O)[C@H](Cc2ccc(-c3ccccc3)cc2)NC(=O)[C@H](CC(C)C)NC(=O)[C@H](Cc2c[nH]c3ccccc23)NC(=O)[C@H](CC(=O)O)NC(=O)[C@H](Cc2ccc(OCC(=O)O)cc2)NC(=O)[C@H](Cc2ccc(OCC(=O)O)cc2)NC(=O)CSC[C@@H](C(=O)N[C@@H](CCN)C(=O)NCCOCCOCC(=O)NCCCCCCCCCCC(=O)O)NC(=O)[C@H](CO)NC(=O)[C@H](C(C)C)NC(=O)[C@H](CC(C)C)NC(=O)[C@H](CC(N)=O)NC(=O)[C@@H](CC(C)C)NC(=O)[C@H](C)N(C)C1=O", "note": "(stereo partly drawn) [Example 2038] ({CH2CO}-Y(Carboxymethyl)Y(Carboxymethyl)DWL[Bip][Ile(3ξ)][NMeA][dL]NLVSC[Dab][AEEA][Aun]-OH; thioether N-14)", "pIC50": 7.53}, {"smiles": "CC(C)C[C@@H]1NC(=O)[C@H](Cc2c[nH]c3ccccc23)NC(=O)[C@H](CC(=O)O)NC(=O)[C@H](Cc2ccc(OCC(=O)O)cc2)NC(=O)[C@H](Cc2ccc(OCC(=O)O)cc2)NC(=O)CSC[C@@H](C(=O)N[C@@H](CCN)C(=O)NCCOCCOCC(=O)NCCCCCCCCCCC(=O)O)NC(=O)[C@H](CO)NC(=O)[C@H](C(C)C)NC(=O)[C@H](CC(C)C)NC(=O)[C@H](CCN)NC(=O)[C@@H](CC(C)C)NC(=O)[C@H](C)N(C)C(=O)[C@H](C(C)C)NC(=O)[C@H](Cc2ccc(-c3ccccc3)cc2)NC1=O", "note": "[Example 2039] ({CH2CO}-Y(Carboxymethyl)Y(Carboxymethyl)DWL[Bip]V[NMeA][dL][Dab]LVSC[Dab][AEEA][Aun]-OH; thioether N-14)", "pIC50": 6.06}, {"smiles": "CCC(C)[C@@H]1NC(=O)[C@H](Cc2ccc(-c3ccccc3)cc2)NC(=O)[C@H](CC(C)C)NC(=O)[C@H](Cc2c[nH]c3ccccc23)NC(=O)[C@H](CC(=O)O)NC(=O)[C@H](Cc2ccc(OCC(=O)O)cc2)NC(=O)[C@H](Cc2ccncc2)NC(=O)CSC[C@@H](C(=O)N[C@@H](CCCN)C(=O)NCCOCCOCC(=O)NCCCCCCCCCCC(=O)O)NC(=O)[C@H](C(C)O)NC(=O)[C@H](C(C)C)NC(=O)[C@H](CC2CCCCC2)NC(=O)[C@H](CCN)NC(=O)[C@@H](CC(C)C)NC(=O)[C@H](C)N(C)C1=O", "note": "(stereo partly drawn) [Example 2040] ({CH2CO}-[4Pal]Y(Carboxymethyl)DWL[Bip][Ile(3ξ)][NMeA][dL][Dab][Cha]V[Thr(3ξ)]C[Orn][AEEA][Aun]-OH; thioether N-14)", "pIC50": 8.06}, {"smiles": "CCC(C)[C@@H]1NC(=O)[C@H](Cc2ccc(-c3ccccc3)cc2)NC(=O)[C@H](CC(C)C)NC(=O)[C@H](Cc2cccc(C)c2)NC(=O)[C@H](CC(=O)O)NC(=O)[C@H](Cc2ccc(OCC(=O)O)cc2)NC(=O)[C@H](Cc2ccc(OCC(=O)O)cc2)NC(=O)CSC[C@@H](C(=O)NCCOCCOCC(=O)N[C@@H](CCC(=O)NCCCCCCCCCCC(=O)O)C(=O)O)NC(=O)[C@H](CO)NC(=O)[C@H](C(C)C)NC(=O)[C@H](CC(C)C)NC(=O)[C@H](CCN)NC(=O)[C@@H](CC(C)C)NC(=O)[C@H](C)N(C)C1=O", "note": "(stereo partly drawn) [Example 2043] ({CH2CO}-Y(Carboxymethyl)Y(Carboxymethyl)D[Phe(3-Me)]L[Bip][Ile(3ξ)][NMeA][dL][Dab]LVSC[AEEA][γGlu][Aun]-OH; thioether N-14)", "pIC50": 7.76}, {"smiles": "CCC(C)[C@@H]1NC(=O)[C@H](Cc2ccc(-c3ccccc3)cc2)NC(=O)[C@H](CC(C)C)NC(=O)[C@H](Cc2c[nH]c3ccccc23)NC(=O)[C@H](CC(=O)O)NC(=O)[C@H](Cc2ccc(OCC(=O)O)cc2)NC(=O)[C@H](CCCCNC(=N)N)NC(=O)CSC[C@@H](C(=O)NCCOCCOCC(=O)N[C@@H](CCC(=O)NCCCCCCCCCCC(=O)O)C(=O)O)NC(=O)[C@H](CO)NC(=O)[C@H](C(C)C)NC(=O)[C@H](CC(C)C)NC(=O)[C@H](CCN)NC(=O)[C@@H](CC(C)C)NC(=O)[C@H](C)N(C)C1=O", "note": "(stereo partly drawn) [Example 2044] ({CH2CO}-[hArg]Y(Carboxymethyl)DWL[Bip][Ile(3ξ)][NMeA][dL][Dab]LVSC[AEEA][γGlu][Aun]-OH; thioether N-14)", "pIC50": 7.17}, {"smiles": "CCC(C)[C@@H]1NC(=O)[C@H](Cc2ccc(-c3ccccc3)cc2)NC(=O)[C@H](CC(C)C)NC(=O)[C@H](Cc2c[nH]c3ccccc23)NC(=O)[C@H](CC(=O)O)NC(=O)[C@H](Cc2ccc(OCC(=O)O)cc2)NC(=O)[C@H](Cc2ccncc2)NC(=O)CSC[C@@H](C(=O)NCCOCCOCC(=O)N[C@@H](CCC(=O)NCCCCCCCCCCC(=O)O)C(=O)O)NC(=O)[C@H](CO)NC(=O)[C@H](C(C)C)NC(=O)[C@H](CC2CCCCC2)NC(=O)[C@H](CCN)NC(=O)[C@@H](CC(C)C)NC(=O)[C@H](C)N(C)C1=O", "note": "(stereo partly drawn) [Example 2045] ({CH2CO}-[4Pal]Y(Carboxymethyl)DWL[Bip][Ile(3ξ)][NMeA][dL][Dab][Cha]VSC[AEEA][γGlu][Aun]-OH; thioether N-14)", "pIC50": 7.57}, {"smiles": "CCC(C)[C@@H]1NC(=O)[C@H](Cc2ccc(-c3ccccc3)cc2)NC(=O)[C@H](C(C)C)NC(=O)[C@H](Cc2c[nH]c3ccccc23)NC(=O)[C@H](CC(=O)O)NC(=O)[C@H](Cc2ccc(OCC(=O)O)cc2)NC(=O)[C@H](C(C)O)NC(=O)CSC[C@@H](C(=O)N[C@@H](CCCN)C(=O)N[C@@H](CCC(=O)NCCCCCCCCCCCC(=O)O)C(=O)O)NC(=O)[C@H](CO)NC(=O)[C@H](C(C)C)NC(=O)[C@H](CC2CCCCC2)NC(=O)[C@H](CCN)NC(=O)[C@@H](CC(C)C)NC(=O)[C@H](C)N(C)C1=O", "note": "(stereo partly drawn) [Example 2047] ({CH2CO}-[Thr(3ξ)]Y(Carboxymethyl)DWV[Bip][Ile(3ξ)][NMeA][dL][Dab][Cha]VSC[Orn][γGlu][12Ado]-OH; thioether N-14)", "pIC50": 7.45}, {"smiles": "CCC(C)[C@@H]1NC(=O)[C@H](Cc2ccc(-c3ccccc3)cc2)NC(=O)[C@H](C(C)C)NC(=O)[C@H](Cc2c[nH]c3ccccc23)NC(=O)[C@H](CC(=O)O)NC(=O)[C@H](Cc2ccc(O)cc2)NC(=O)[C@H](C(C)O)NC(=O)CSC[C@@H](C(=O)N[C@@H](CC(N)=O)C(=O)NCCOCCOCC(=O)NCCCCCCCCCCC(=O)O)NC(=O)[C@H](CO)NC(=O)[C@H](C(C)C)NC(=O)[C@H](CC(C)C)NC(=O)[C@H](CCN)NC(=O)[C@@H](CC(C)C)NC(=O)[C@H](C)N(C)C1=O", "note": "(stereo partly drawn) [Example 2050] ({CH2CO}-[Thr(3ξ)]YDWV[Bip][Ile(3ξ)][NMeA][dL][Dab]LVSCN[AEEA][Aun]-OH; thioether N-14)", "pIC50": 7.59}]}]}
